In patent US20050250945A1, “Triazine compounds as inhibitors of bacterial type III protein secretion systems” (priority 2004, published 2005):

How the values were obtained:
Assay type in all cases: cell-based
[1] = test system: SPI1 type III protein secretion system (SopE‘-’Bla secretion); assay: Primary assay: Type III protein secretion of the chimeric SopE‘-’Bla polypeptide (nitrocefin hydrolysis); conditions: Salmonella enterica, read-out: SopE IC50(uM)
From the text: Primary assay: Type III protein secretion of the chimeric SopE‘-’Bla polypeptide by Salmonella enterica. This procedure is a cell-based assay that measures the type III-dependent secretion by Salmonella enterica of a plasmid-encoded chimeric polypeptide whose synthesis can be regulated, and which is endowed with an enzymatic activity that can be monitored colorimetrically by hydrolysis of a substrate that is unable to penetrate into the bacterial cytoplasm within the time constraints of the reaction. Thus, the colorimetric reaction is not influenced by SopE‘-’Bla polypeptide in the bacterial cytoplasm. Instead, it effectively measures the amount of polypeptide that has been secreted from the S. enterica cytoplasm to the extracellular medium via type III system protein secretion.
The SopE‘-’Bla recombinant polypeptide consists of two functionally distinct domains spliced together. The N-terminus domain is encoded by a polynucleotide region specifying the signal for type III secretion of the SopE polypeptide of S. enterica, an effector of the SPI1 type III protein secretion system. The C-terminus domain of SopE‘-’Bla consists of a 263 amino acid peptide sequence that corresponds to the TEM-1 β-lactamase expressed by plasmid pBR322 but without its N-terminal signal sequence. The TEM-1 β-lactamase part of the SopE‘-’Bla chimeric polypeptide is used as a reporter enzyme. It is capable of hydrolyzing nitrocefin resulting in a product whose accumulation can be monitored by colorimetric detection. The secretion of the SopE‘—’Bla chimeric polypeptide from the cytoplasm to the extracellular medium is dependent on type III protein secretion.
For this procedure, cells grown under conditions known to favor a functional SPI1 secretion system are induced for expression of the SopE‘-’Bla protein and grown either in the presence or in the absence of putative inhibitors for determined time. Nitrocefin is then added to the various cultures and its hydrolysis are used for quantitation. An inhibitor of Type III protein secretion is generally a compound that reduces the signal of the enzymatic reaction by decreasing the amount of SopE‘-’Bla secreted into the extracellular medium.

[2] = test system: SPI1 type III protein secretion system (SipB secretion); assay: Secondary assay: Type III-dependent protein secretion of the SipB polypeptide (immunoblot); conditions: Salmonella enterica, read-out: SipB IC50(uM)
Protocol: Secondary assay: Type III-dependent protein secretion of the SipB polypeptide by S. enterica. The SipB protein of S. enterica is another effector of the SPI1 type III protein secretion system from S. enterica. In this cell-based procedure, the Type III-dependent secretion of SipB from the bacterial cytoplasm to the extracellular medium was measured through its reactivity with a cognate mouse monoclonal.
Salmonella enterica cells growing either in the presence or in the absence of inhibitors are induced for the production of SipB. Following an established period of growth the cells are sedimented and the amount of SipB present in the supernatant is quantified with a scanning imager following application of immunoblot techniques. Detection may employ an anti-SipB mouse monoclonal antibody (e.g., obtained from Jorge Galan, SUNY at Stony Brook, N.Y.) followed by treatment with commercially available sheep anti-mouse polyclonal antibody conjugated with horseradish peroxidase. Thereafter the membrane is treated with a peroxidase chemiluminescent substrate and exposed to film for an appropriate exposure time. Inhibition may be measured relative to untreated controls.

[3] = test system: type III protein secretion system of P. aeruginosa PA103 (ExoU secretion); assay: Tertiary assay: Type III-dependent secretion of ExoU by P. aeruginosa PA103 (SDS-PAGE band quantitation); conditions: Pseudomonas aeruginosa; P. aeruginosa PA103, ExoU secreted into extracellular medium
From the text: Tertiary assay: Inhibition of Type III protein secretion of effectors from a Pseudomonas aeruginosa system. Type III protein secretion is used by P. aeruginosa to secrete several essential virulence determinants. One effector of the type III protein secretion system of P. aeruginosa PA103 is the virulence determinants ExoU.
The amount of Type III-dependent secretion of ExoU by P. aeruginosa PA103 can be determined in a cell-based assay by quantification of the 73.9 kDa ExoU protein secreted into the extracellular medium. Such quantitation can be achieved by growing strain PA103 in a deferrated medium in the presence of nitrilotriacetic acid (an inducer of Type III protein secretion in P. aeruginosa) and either in the presence or absence of putative inhibitors. After a prolonged growth period, the cells are sedimented and the supernatants concentrated by ammonium sulfate precipitation. The proteins in the resuspended pellets are separated by electrophoresis on SDS-polyacrylamide gels. After staining gels with Colloidal Blue™, the 73.9 kDa ExoU band is quantitated by scanning through an imager. The effects of inhibitors on the intensity of the ExoU band may be measured relative to that of untreated controls.

SMILES: O=C(O)[C@H](C[S+]([O-])Cc1ccccc1)Nc1nc(-c2ccc(F)cc2)nc(N2CCc3ccccc3C2)n1 (stereo partly drawn) [Compound 9, (R)-2-[4-(3,4-Dihydro-1H-isoquinolin-2-yl)-6-(4-fluorophenyl)[1,3,5]triazin-2-yl-amino]-3-phenylmethanesulfinylpropionic acid]
- IC50 [1]: 42.6 µM
- IC50 [2]: > 100 µM

SMILES: CN(C)c1ccc(-c2nc(Nc3ccc(C(F)(F)F)cc3)nc(N[C@@H](CSCc3ccccc3)C(=O)O)n2)cc1 [Compound 30, (R)-3-Benzylsulfanyl-2-[4-(4-dimethylaminophenyl)-6-(4-trifluoromethyl-phenylamino)[1,3,5)triazin-2-yl-amino]propionic acid]
- IC50 [1]: 8.5 µM

SMILES: O=C(O)[C@H](CSCc1ccccc1)Nc1nc(Nc2ccc(C(F)(F)F)cc2)nc(-c2cccc3ccccc23)n1 [Compound 18, (R)-3-Benzylsulfanyl-2-[4-naphthalen-1-yl-6-(4-trifluoromethylphenylamino)-[1,3,5]triazin-2-yl-amino]propionic acid]
- IC50 [1]: 2.5 µM

SMILES: O=C(O)[C@H](CSCc1ccccc1)Nc1nc(Nc2ccc(C(F)(F)F)cc2)nc(-c2ccc(C(F)(F)F)cc2)n1 [Compound 16, (R)-3-Benzylsulfanyl-2-[4-(4-trifluoromethylphenyl)-6-(4-trifluoromethyl-phenylamino)[1,3,5]triazin-2-yl-amino]propionic acid]
- IC50 [1]: 2 µM

SMILES: O=C(O)[C@H](CSCc1ccccc1)Nc1nc(Nc2ccc(C(F)(F)F)cc2)nc(-c2ccc(Cl)c(Cl)c2)n1 [Compound 13, (R)-3-Benzylsulfanyl-2-[4-(3,4-dichlorophenyl)-6-(4-trifluoromethylphenylamino)-[1,3,5]triazin-2-yl-amino]propionic acid]
- IC50 [1]: 1.25 µM

SMILES: O=C(O)[C@H](CSCc1ccccc1)Nc1nc(Nc2ccc(C(F)(F)F)cc2)nc(-c2ccccc2Oc2ccccc2)n1 [Compound 17, (R)-3-Benzylsulfanyl-2-[4-(2-phenoxyphenyl)-6-(4-trifluoromethylphenylamino)[1,3,5]triazin-2-yl-amino]propionic acid]
- IC50 [1]: 2.5 µM

SMILES: O=C(O)[C@H](CS(=O)(=O)Cc1ccccc1)Nc1nc(-c2ccc(F)cc2)nc(N2CCc3ccccc3C2)n1 [Compound 11, (R)-2-[4-(3,4-Dihydro-1H-isoquinolin-2-yl)-6-(4-fluorophenyl)[1,3,5]triazin-2yl-amino]-3-phenyl-methanesulfonyl propionic acid]
- IC50 [1]: 86 µM
- IC50 [2]: > 100 µM

SMILES: O=C(O)[C@H](CSCc1ccccc1)Nc1nc(Nc2ccc(C(F)(F)F)cc2)nc(-c2cc(F)cc(F)c2)n1 [Compound 29, (R)-3-Benzylsulfanyl-2-[4-(3,5-difluorophenyl)-6-(4-trifluoromethylphenylamino)[1,3,5]triazin-2-yl-amino]propionic acid]
- IC50 [1]: 7.4 µM

SMILES: O=C(O)[C@H](CSCc1ccccc1)Nc1nc(Nc2ccc(C(F)(F)F)cc2)nc(-c2ccc(F)cc2)n1 [Compound 25, (R)-3-Benzylsulfanyl-2-[4-(4-fluorophenyl)-6-(4-trifluoromethylphenylamino)-[1,3,5]triazin-2-yl-amino]propionic acid]
- IC50 [1]: 4.7 µM

SMILES: CC(C)Oc1ccc(-c2nc(Nc3ccc(C(F)(F)F)cc3)nc(N[C@@H](CSCc3ccccc3)C(=O)O)n2)cc1 [Compound 22, (R)-3-Benzylsulfanyl-2-[4-(4-isopropoxyphenyl)-6-(4-trifluoromethyl-phenylamino)[1,3,5]triazin-2-yl-amino]propionic acid]
- IC50 [1]: 4.1 µM

SMILES: O=C(O)[C@H](CSCc1ccccc1)Nc1nc(Nc2ccc(C(F)(F)F)cc2)nc(-c2cccc(F)c2)n1 [Compound 23, (R)-3-Benzylsulfanyl-2-[4-(3-fluorophenyl)-6-(4-trifluoromethylphenylamino)-[1,3,5]triazin-2-yl-amino]propionic acid]
- IC50 [1]: 4.2 µM

SMILES: O=C(O)[C@H](CSCc1ccccc1)Nc1nc(Nc2ccc(C(F)(F)F)cc2)nc(-c2ccccc2F)n1 [Compound 28, (R)-3-Benzylsulfanyl-2-[4-(2-fluorophenyl)-6-(4-trifluoromethylphenylamino)-[1,3,5]triazin-2-yl-amino]propionic acid]
- IC50 [1]: 6.7 µM
- IC50 [3]: > 100 µM

SMILES: O=C(O)[C@H](CSCc1ccccc1)Nc1nc(Nc2ccc(C(F)(F)F)cc2)nc(-c2ccc(Cl)cc2)n1 [Compound 15, (R)-3-Benzylsulfanyl-2-[4-(4-chlorophenyl)-6-(4-trifluoromethylphenylamino)-[1,3,5]triazin-2-yl-amino]propionic acid]
- IC50 [1]: 1.9 µM

SMILES: O=C(O)[C@H](CSCc1ccccc1)Nc1nc(Nc2ccc(C(F)(F)F)cc2)nc(-c2ccc(OC(F)(F)F)cc2)n1 [Compound 19, (R)-3-Benzylsulfanyl-2-[4-(4-trifluoromethoxyphenyl)-6-(4-trifluoromethyl-phenylamino)[1,3,5]triazin-2-yl-amino]propionic acid]
- IC50 [1]: 3.2 µM

SMILES: O=C(O)[C@H](CSCc1ccccc1)Nc1nc(Nc2ccc(C(F)(F)F)cc2)nc(-c2cccc(C(F)(F)F)c2)n1 [Compound 21, (R)-3-Benzylsulfanyl-2-[4-(3-trifluoromethylphenyl)-6-(4-trifluoromethyl-phenylamino)[1,3,5]triazin-2-yl-amino]propionic acid]
- IC50 [1]: 4.1 µM

SMILES: O=C(O)C(Cc1ccc(Cl)cc1)Nc1nc(Nc2ccc(C(F)(F)F)cc2)nc(-c2ccc(F)cc2)n1 (stereo not drawn) [Compound 27, 3-(4-Chlorophenyl)-2-[4-(4-fluorophenyl)-6-(4-trifluoromethylphenylamino)-[1,3,5]triazin-2-yl-amino]propionic acid]
- IC50 [1]: 6.1 µM
- IC50 [2]: > 100 µM

SMILES: O=C(O)[C@H](CSCc1ccccc1)Nc1nc(Nc2ccc(C(F)(F)F)cc2)nc(-c2ccc(Br)cc2)n1 [Compound 14, (R)-3-Benzylsulfanyl-2-[4-(4-bromophenyl)-6-(4-trifluoromethylphenylamino)-[1,3,5]triazin-2-yl-amino]propionic acid]
- IC50 [1]: 1.7 µM

SMILES: O=C(O)[C@H](CSCc1ccccc1)Nc1nc(Nc2ccc(C(F)(F)F)cc2)nc(-c2ccc3ccccc3c2)n1 [Compound 20, (R)-3-Benzylsulfanyl-2-[4-naphthalen-2-yl-6-(4-trifluoromethylphenylamino)-[1,3,5]triazin-2-yl-amino]propionic acid]
- IC50 [1]: 3.3 µM
- IC50 [3]: > 100 µM

SMILES: O=C(O)[C@H](CSCc1ccccc1)Nc1nc(Nc2ccc(C(F)(F)F)cc2)nc(-c2ccc(O)cc2)n1 [Compound 31, (R)-3-Benzylsulfanyl-2-[4-(4-hydroxyphenyl)-6-(4-trifluoromethylphenylamino)-[1,3,5]triazin-2-yl-amino]propionic acid]
- IC50 [1]: 9.1 µM

SMILES: O=C(O)[C@H](CSCc1ccccc1)Nc1nc(Nc2ccc(C(F)(F)F)cc2)nc(-c2ccc(Oc3ccccc3)cc2)n1 [Compound 12, (R)-3-Benzylsulfanyl-2-[4-(4-phenoxyphenyl)-6-(4-trifluoromethylphenylamino)[1,3,5]triazin-2-yl-amino]propionic acid]
- IC50 [1]: 1.1 µM
- IC50 [3]: > 100 µM

SMILES: O=C(O)[C@H](CSCc1ccccc1)Nc1nc(Nc2ccc(C(F)(F)F)cc2)nc(-c2ccccc2)n1 [Compound 24, (R)-3-Benzylsulfanyl-2-[4-phenyl-6-(4-trifluoromethylphenylamino)[1,3,5]triazin-2-yl-amino]propionic acid]
- IC50 [1]: 4.4 µM
